System: human cholangiocarcinoma cell line SK-ChA-1
Assay: Anti-proliferative MTT assay on human cholangiocarcinoma cell line SK-ChA-1
Format: cell-based
Conditions: for inhibiting the growth of the human cholangiocarcinoma cell line: FIGS. 1 and 2, both experiments, non-dose dependent; for Percent Protection, Day 8: first experiment (Table I); for Percent Protection Day 4: second experiment (Table II)
Experimental: The human cholangiocarcinoma cell line SK-ChA-1 was grown from malignant ascites of a patient with primary adenocarcinoma of the extrahepatic biliary tree. See Knuth, et al. J. of Hepatology 1:579 (1985), hereby incorporated by reference.
SK-ChA-1 cells were plated (100 μl) into 96-well culture plates (Falcon) at a density of 50,000 cells/ml in Dulbecco's modified Eagle's medium (DMEM/HAMSF12 (50:50)) with 2% fetal calf serum (FCS, Hyclone) and antibiotics (penicillin 100 IU/ml, streptomycin 100 μg/ml and amphotericin B 2.5 μg/ml). After 18 hours, the medium was replaced with fresh medium with or without the two test drugs, natural somatostatin-14 and the somatostatin agonist octreotide. The experiments were performed in triplicate. Wells without the addition of any test drug served as normal controls. All media, with the appropriate concentration of test drug, were changed every two days.
The amount of viable cells were assayed every two days using 3-(4,5-[…])-2,5-diphenyl tetrazolium (MTT) according to method published by Tada, J. Immunol. Meth. 93:157 (1986), hereby incorporated by reference. Optical density was read by a 96-well automatic microplate reader (molecular Devices) at a test wavelength of 570 nm and a reference wavelength of 630 nm. An experiment had validated the correlation of the MTT assay (r=0.975, p=0.004) with a wide range of cell concentrations (3,000 to 330,000 cells/ml) counted with the hemocytometer. Cell proliferation curves with respect to time and test drug concentration were plotted with control wells as the baseline for comparison.
Two experiments were performed using this assay. […] The second experiment was performed at concentrations of 10^-5 M to 10^-10 M (in one log increments) and assayed every two days until day 8.

[1] = drug concentration 1 × 10^-5 M, MTT viable cells vs control wells
[2] = drug concentration 1 × 10^-10 M

Row | SMILES | inhibiting the growth of the human cholangiocarcinoma cell line | Percent Protection, Day 8 [1] [%] | Percent Protection, Day 8 (drug concentration 1 × 10^-6 M) [%] | Percent Protection, Day 8 (drug concentration 1 × 10^-7 M) [%] | Percent Protection, Day 8 (drug concentration 1 × 10^-8 M) [%] | Percent Protection Day 4 (drug concentration 1 × 10^-5 M) [%] | Percent Protection Day 4 (drug concentration 1 × 10^-6 M) [%] | Percent Protection Day 4 (drug concentration 1 × 10^-7 M) [%] | Percent Protection Day 4 (drug concentration 1 × 10^-8 M) [%] | Percent Protection Day 4 (drug concentration 1 × 10^-9 M) [%] | Percent Protection Day 4 [2] [%]
1 | C[C@@H](O)[C@@H]1NC(=O)[C@H](CCCCN)NC(=O)[C@@H](Cc2c[nH]c3ccccc23)NC(=O)[C@H](Cc2ccccc2)NC(=O)[C@@H](NC(=O)[C@H](N)Cc2ccccc2)CSSC[C@@H](C(=O)N[C@H](CO)[C@@H](C)O)NC1=O [Octreotide, H-D-Phe-Cys-Phe-D-Trp-Lys-Thr-Cys-threoninol] | effective in inhibiting the growth | 79.1 | 92.2 | 78.4 | 61.0 | 62.6 | 52.9 | 44.4 | 46.8 | 61.7 | 50.4
2 | C[C@H](N)C(=O)NCC(=O)N[C@H]1CSSC[C@@H](C(=O)O)NC(=O)[C@H](CO)NC(=O)[C@H]([C@@H](C)O)NC(=O)[C@H](Cc2ccccc2)NC(=O)[C@H]([C@@H](C)O)NC(=O)[C@H](CCCCN)NC(=O)[C@H](Cc2c[nH]c3ccccc23)NC(=O)[C@H](Cc2ccccc2)NC(=O)[C@H](Cc2ccccc2)NC(=O)[C@H](CC(N)=O)NC(=O)[C@H](CCCCN)NC1=O [Somatostatin] | effective in inhibiting the growth | 94.9 | 66.8 | 89.9 | – | 54.3 | 47.5 | 42.6 | 50.2 | 50.4 | 62.3

From patent US5583104A, “Treatment of proliferation of bile duct epithelium” (Mayo Foundation for Medical Research and Education, priority 1993, dated 1996)
